Reference: paper PMC4893612 (Scientific Reports, 2016)

How the values were obtained:
OPM-Bz^R cells = assay: 3H-VLX1570 cellular uptake, OPM-Bz^R versus parental cells; conditions: OPM-Bz^R cells compared to parental cells
UCHL5 = biological target: T1, UCHL5 (Homo sapiens, UniProt Q9Y5K5); assay: SPR binding to recombinant UCHL5, NTA chip; conditions: protein from ProSpec, read-out: UCHL5(P) KD
T1 sequence (Q9Y5K5 1-329): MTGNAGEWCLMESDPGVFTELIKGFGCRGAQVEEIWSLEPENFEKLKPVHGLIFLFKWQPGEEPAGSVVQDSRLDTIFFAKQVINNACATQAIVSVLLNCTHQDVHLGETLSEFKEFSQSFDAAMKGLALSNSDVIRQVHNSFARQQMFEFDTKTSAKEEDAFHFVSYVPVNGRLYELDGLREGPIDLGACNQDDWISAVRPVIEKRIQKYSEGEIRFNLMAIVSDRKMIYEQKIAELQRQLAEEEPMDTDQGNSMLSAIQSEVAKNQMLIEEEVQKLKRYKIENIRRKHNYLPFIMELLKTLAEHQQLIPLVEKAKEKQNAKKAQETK
Source text: (§1) A BIACORE T200 was used for characterization of the interaction between compounds and USP14, UCHL5 and 26S proteasome. The standard BIACORE protocols were used for NTA chip (Ni/His-tag immobilization) and CM7 chip for compound interaction studies with slight modification described below. The x6 his-tagged USP14 and UCHL5 proteins were coupled to a Series S NTA BIACORE sensor chip in the BIACORE T200 using the his-tags for adherence of the proteins to the surface and an amine coupling procedure for covalent attachment to the chip surface. NTA chip was cleaned using three 500 μM EDTA injections followed by an injection of 500 μM Ni^2+ and activation of the chip surface with EDC/NHS injection according to BIACORE standard methods. Each chip has four separate areas, which were handled separately during the immobilization procedure. Area 1 was used as blank reference surface, area 2–4 was coupled with investigated recombinant proteins or complexes. Proteins were diluted in running buffer (10 mM HEPES, 150 mM NaCl, 0,005% Tween 20) to typically 10 μg/ml before injection(1 mL) over the prepared surfaces. […] The immobilization procedure was followed by injections of compound concentration series of VLX1570. […] Rmax and KD were calculated using Langmuir binding isotherms as provided in the Biacore software.

[1] = system: KMS-11 multiple myeloma cells; assay type: in vivo; conditions: 3 mg/kg intravenous, 10 days; SCID mice
Procedure: Two different multiple myeloma models were used. Experimental protocols and methods were performed by Accelera (Nerviano, Italy) in accordance with guidelines and with permission from the local ethics committee (Nerviano Medical Sciences (NMS) Ethic Committee). All experimental protocols were approved by the Nerviano Medical Sciences (NMS) Ethic Committee. Study director was Marina Ciomei. SCID female mice were obtained from Charles River, Italy. Body weights at the day of tumor implant were between 19 and 22 grams. Treatment started at day 7 after injection of tumor cells and continued for 10 consequtive days. Mice were monitored daily for mortality and clinical signs. In the KMS-11 model, antitumor efficacy was evaluated in terms of survival increase respect to control. In the RPMI8226 model, the growth of subcutaneous tumors was recorded. […] A gray-scale image of the mice was captured, followed by an overlay of a bioluminescence map representing the spatial distribution of photons detected from cleaved luciferin in the cancer cells expressing luciferase. Signal intensity was quantified using a customized version of the IGOR Pro version 4.09A Software (WaveMetrics, Inc., Lake Oswego, OR) called Living Image version 3.00 (Xenogen). Photon emission was measured as whole-body radiance and the individual regions of interest (ROIs) were manually selected. […]

USP14 = USP14 (Homo sapiens, UniProt P54578); assay: SPR binding to recombinant USP14, CM7 chip; conditions: protein from Karolinska Institute Protein Science Facility, read-out: USP14(K) KD
USP14, sequence (P54578 whole entry): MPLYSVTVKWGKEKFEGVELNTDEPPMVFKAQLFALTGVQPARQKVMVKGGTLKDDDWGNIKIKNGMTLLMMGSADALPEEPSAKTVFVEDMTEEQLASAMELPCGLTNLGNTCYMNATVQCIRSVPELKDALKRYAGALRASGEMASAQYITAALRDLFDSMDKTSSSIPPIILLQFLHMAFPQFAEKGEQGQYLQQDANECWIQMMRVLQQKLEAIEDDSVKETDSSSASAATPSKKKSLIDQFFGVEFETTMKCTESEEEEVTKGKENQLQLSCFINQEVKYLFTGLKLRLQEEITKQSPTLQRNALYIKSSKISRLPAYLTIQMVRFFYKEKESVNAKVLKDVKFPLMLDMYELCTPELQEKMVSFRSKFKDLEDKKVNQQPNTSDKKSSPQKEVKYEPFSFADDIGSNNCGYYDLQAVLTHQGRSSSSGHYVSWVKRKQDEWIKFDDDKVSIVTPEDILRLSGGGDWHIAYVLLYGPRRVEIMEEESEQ
Source text: as §1

USP5 = biological target: T2, USP5 (Homo sapiens, UniProt P45974); assay: SPR binding to USP5; conditions: data not shown
T2 sequence (P45974 1-858): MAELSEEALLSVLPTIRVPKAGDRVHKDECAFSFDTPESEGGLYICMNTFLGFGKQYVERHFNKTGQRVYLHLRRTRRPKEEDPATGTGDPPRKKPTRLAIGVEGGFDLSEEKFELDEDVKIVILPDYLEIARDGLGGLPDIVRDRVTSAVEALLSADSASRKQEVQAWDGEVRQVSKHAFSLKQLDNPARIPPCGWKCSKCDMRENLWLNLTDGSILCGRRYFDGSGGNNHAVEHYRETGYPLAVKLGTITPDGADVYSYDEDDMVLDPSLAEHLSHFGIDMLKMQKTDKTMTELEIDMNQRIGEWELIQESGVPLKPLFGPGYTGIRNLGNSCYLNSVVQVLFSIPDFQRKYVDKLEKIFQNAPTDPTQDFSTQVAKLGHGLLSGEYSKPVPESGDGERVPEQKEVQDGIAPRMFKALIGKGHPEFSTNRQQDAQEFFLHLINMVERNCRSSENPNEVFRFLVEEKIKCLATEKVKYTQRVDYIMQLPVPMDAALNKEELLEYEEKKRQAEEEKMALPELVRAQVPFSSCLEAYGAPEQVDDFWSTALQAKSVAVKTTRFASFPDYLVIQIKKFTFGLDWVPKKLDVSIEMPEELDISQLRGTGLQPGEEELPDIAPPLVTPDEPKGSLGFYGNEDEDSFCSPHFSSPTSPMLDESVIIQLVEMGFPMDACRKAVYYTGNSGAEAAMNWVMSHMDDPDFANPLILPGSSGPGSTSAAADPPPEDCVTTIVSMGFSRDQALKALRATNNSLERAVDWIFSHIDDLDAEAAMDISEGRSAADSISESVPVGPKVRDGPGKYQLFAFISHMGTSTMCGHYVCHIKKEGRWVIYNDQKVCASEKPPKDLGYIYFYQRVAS

C=CC(=O)N1CC/C(=C\c2ccc(F)c([N+](=O)[O-])c2)C(=O)/C(=C/c2ccc(F)c([N+](=O)[O-])c2)C1 [VLX1570]
cellular uptake of radiolabeled drug (OPM-Bz^R cells): decreased uptake
Kd (UCHL5): 14 µM
survival of the animals [1]: increased the survival
Kd (USP14): 35 µM
saturable binding to USP5 (USP5): No saturable binding
